Common to all, as to assay: steady-state kinetics, DCIP reduction (spectrophotometric)
Common to all, as to type: biochemical, Neurospora crassa
What all share (settings): 2,6-dichloroindophenol as saturating co-substrate; pH 6.0 citrate-phosphate; 30 °C

The subject of one test is T1, CDHBAA.
T1 construct: gene cdhIIA; single fused chain: CYT of NcCDHIIB + linker, DH and CBM1 of NcCDHIIA; expressed in Pichia pastoris KM71H; with Cellobiose dehydrogenase
An excerpt: steady-state kinetics, DCIP reduction (spectrophotometric) on CDHBAA

The subject of the next test is T2, CDHAAB.
T2 construct: gene cdhIIB; single fused chain: CYT and linker of NcCDHIIA + DH of NcCDHIIB, no CBM1; expressed in Pichia pastoris KM71H; with Cellobiose dehydrogenase
From the text: steady-state kinetics, DCIP reduction (spectrophotometric) on CDHAAB

The next test deals with T3, CDHBBA.
T3 construct: gene cdhIIA; single fused chain: CYT and linker of NcCDHIIB + DH and CBM1 of NcCDHIIA; expressed in Pichia pastoris KM71H; with Cellobiose dehydrogenase
From the text: steady-state kinetics, DCIP reduction (spectrophotometric) on CDHBBA

The test system of a further test is T4, CDHABB.
T4 construct: gene cdhIIB; single fused chain: CYT of NcCDHIIA + linker and DH of NcCDHIIB, no CBM1; expressed in Pichia pastoris KM71H; with Cellobiose dehydrogenase
An excerpt:
steady-state kinetics, DCIP reduction (spectrophotometric) on CDHABB

Turning to `OC[C@H]1O[C@@H](O[C@H]2[C@H](O)[C@@H](O)C(O)O[C@@H]2CO)[C@H](O)[C@@H](O)[C@@H]1O` (stereo partly shown) [cellobiose], the Michaelis-Menten constant (Km) (in general, the substrate concentration at which the rate is half of its maximum) worked out at 57 ± 6 µM in the test with CDHBAA, 46 ± 3 µM in the test with CDHAAB, 75 ± 5 µM in the test with CDHBBA and 26 ± 3 µM in the test on CDHABB.
